The numbers were not newly measured in patent US20130065959A1, “SANITIZING MEAT WITH PERACID AND 2-HYDROXY ORGANIC ACID COMPOSITIONS” (Fresh Express Incorporated, priority 2009, published 2013), which cites them from elsewhere.

For this series the following is noted: cited from earlier work.

As to `[O][Cl+][O-]` [Chlorine Dioxide], the “Oxidation Capacity” value is given as 1.57 eV.
Regarding `O=[O+][O-]` [Ozone], the “Oxidation Capacity” value was 2.07 eV.
On to `OCl` [Sodium hypochlorite (Chlorine bleach), Sodium hypochlorite], for which the “Oxidation Capacity” value is on record as 1.36 eV.
